Test results taken from ChEMBL document CHEMBL4000244, “Probing A-form DNA: A fluorescent aminosugar probe and dual recognition by anthraquinone-neomycin conjugates” (Bioorg Med Chem, 2017).

Tests used:
[1] = Binding affinity to 5'-GCCGCGCC-3' DNA hairpin assessed as change in fluorescence intensity at 1 uM after 45 mins by fluorescence quenching analysis relative to control
[2] = Binding affinity to 5'-CCCGCCGC-3' DNA hairpin assessed as change in fluorescence intensity at 1 uM after 45 mins by fluorescence quenching analysis relative to control
[3] = Binding affinity to 5'-GGGGGCCC-3' DNA hairpin assessed as change in fluorescence intensity at 1 uM after 45 mins by fluorescence quenching analysis relative to control
[4] = Binding affinity to 5'-CCCGCGGG-3' DNA hairpin assessed as change in fluorescence intensity at 1 uM after 45 mins by fluorescence quenching analysis relative to control
[5] = Binding affinity to 5'-GCGCGGCC-3' DNA hairpin assessed as change in fluorescence intensity at 1 uM after 45 mins by fluorescence quenching analysis relative to control
[6] = Binding affinity to 5'-GGCGCGCC-3' DNA hairpin assessed as change in fluorescence intensity at 1 uM after 45 mins by fluorescence quenching analysis relative to control

Activity [1]: 48.8% | Activity [2]: 48.9% | Activity [3]: 34.4% | Activity [4]: 40.3% | Activity [5]: 50.4% | Activity [6]: 49%
Compound: NCC1O[C@H](O[C@H]2[C@@H](O)[C@H](O[C@@H]3[C@@H](O)[C@H](N)C[C@H](N)[C@H]3O[C@H]3O[C@H](CN)[C@@H](O)[C@H](O)[C@H]3N)O[C@@H]2CSCCNC(=O)CCSCC(=O)Nc2ccc(-c3c4ccc(=O)cc-4oc4cc(O)ccc34)c(C(=O)O)c2)[C@H](N)[C@@H](O)[C@@H]1O (stereo partly specified)
